“Also recorded” adds a separate entry of the source.
Legend:
[1] = system: TOM20; assay: TOM20 ubiquitination and TOM20 protein level after A/O, western blot; format: cell-based
Description: HeLa cells and mouse embryonic fibroblasts (MEFs) were grown in Dulbecco's minimum essential medium (DMEM) with 10% fetal bovine serum (FBS) supplemented with penicillin-streptomycin. HeLa Parkin, PINK1 KO cells, WT and MFN2 KO cells were previously described. Cells stably expressing USP30 were generated using lentiviral vectors of pLVX-Puro-Myc-USP30. The USP30 plasmid was obtained from Addgene. The plasmid was transferred into a lentiviral vector and viral particles were prepared by transiently transfecting HEK293T using standard methods. For the drug treatment experiments, cells were incubated in medium containing a mixture of 5 μM oligomycin and 5 μM antimycin A (A/O; see figures for treatment times). In 18 h treatment, A/O were used in combination with 10 μM quinolyl-valyl-O-methylaspartyl-[−2,6-difluorophenoxy]-methyl ketone (QVD), a broad-spectrum caspase inhibitor. ST51000539 (ST-539) was purchased from Tim Tec, Inc. Other chemicals were from Sigma-Aldrich (St. Louis, MO, USA). For FACS analysis, cells stably expressing mt-Keima were incubated in medium containing a mixture of […] antimycin A for 1.5 h. Prior to A/O treatment, cultures were treated with DMSO or ST-539 at 3 μg/ml. Cells were trypsinized, washed once with PBS buffer and then resuspended into 500 μl of PBS prior to analysis using a BD Fortessa flow cytometer as previously described.
Cells were lysed in RIPA buffer (50 mM Tris-HCl, at pH 8.0; 150 mM NaCl; 1% (vol/vol) Nonidet P-40; 0.5% sodium deoxycholate, 0.1% SDS and protease inhibitor cocktail (Roche)) on ice. Primary antibodies were used at the following concentrations: USP30 (Santa Cruz, sc-515235, 1:200); TOM20 (Cell Signaling Technology, 42406S, 1:1000); TOM40 (Proteintech, 18409-1-AP, 1:1000); NDP52 (Cell Signaling Technology, 60732S, 1:1000); TIM23 (Proteintech, 11123-1-AP, 1:500); LC3A/B (Cell Signaling Technology, 4108S, 1:1000); GAPDH (Cell Signaling Technology, 5175S, 1:1000); PINK1 (Cell Signaling Technology, 6946S, 1:1000); ACTIN (Cell Signaling Technology, 3700S, 1:1000). The membranes were incubated with anti-rabbit (LI-COR, 926-32211, 1:15000) or anti-mouse (LI-COR, 926-68072, 1:15000) IgG secondary antibodies for 1 h at room temperature. Images were captured using the Odyssey system (LI-Cor). One representative blot is shown of three independent experiments.
The enzymatic activity of Parkin is to function as an E3 ubiquitin ligase. […] To investigate TOM20 ubiquitination during mitophagy, we treated HeLa cells stably expressing YFP-Parkin (Hela-Parkin) for up to 18 h with both the mitochondrial complex III inhibitor antimycin A and the ATP synthase inhibitor oligomycin (antimycin A/oligomycin/[A/O]; FIG. 1A). […] A/O treatment also results in a decline in the abundance of the OMM protein TOM40 and the inner mitochondrial protein TIM23 (FIG. 1A). […] In this context, increased expression of USP30 blocked the accumulation of ubiquitinated TOM20 and prevented the destruction of this outer mitochondrial protein, as well as TOM40 and TIM23, after A/O treatment (FIG. 1A). We then employed this cellular assay to monitor TOM20 turnover, and analyzed compounds known to be associated with the ubiquitination process for inhibitors of USP30. […] We defined the effects of this chemical using biochemical assays. […] Initially to assess mitophagy in cells, we monitored the degradation of the inner membrane protein, the translocase of the inner membrane 23 (TIM23), by immunoblotting (FIG. 5A). […] USP30's overexpression prevented a reduction in TIM23 and TOM40 levels.
Genetic suppression of USP30 in Parkin-overexpressing cells promotes the clearance of mitochondria in response to mitochondrial depolarizing agents. […]

[2] = system: HeLa-Parkin and HeLa-Parkin cells expressing USP30; assay: Oxygen consumption, Seahorse assay; format: cell-based
Description: Measurement of intact cellular respiration was performed using the Seahorse XFe96 Analyzer as previously described. In brief, 2×10^4 cells per well were seeded in the Seahorse XF Cell Culture Microplate (Agilent) using high-glucose DMEM at 37 °C, with a humidified atmosphere of 5% CO2, overnight. And a sensor cartridge was hydrated in Seahorse XF Calibrant in a non-CO2 incubator overnight at 37 °C. The high-glucose DMEM in Cell Culture Microplate was changed to warmed assay medium and placed into a 37 °C non-CO2 incubator for 45 minutes prior to the assay. Oligomycin (1.5 μM/well), FCCP (1 μM/well) and Antimycin A (0.5 μM/well) were supplemented at 18 minutes, 36 minutes and 54 minutes, respectively. The results were analyzed using the Seahorse Wave software.

[3] = Tissue concentrations 24 h post-dose; format: in vivo, Male C57BL/6 Mice
Description: ST-539 was dissolved into 1% DMSO in Sesame oil and injected intraperitoneally (i.p.) at doses of 25 mg/kg. Serial blood samples were collected at 0.083, 0.25, 0.5, 1, 2, 4 and 8 hours post dosing. Mice were euthanized at 24 hours post dosing. A terminal blood sample was collected by cardiac puncture followed by harvesting the brain and heart. Transcardial perfusion was performed prior to brain collection. The blood samples were placed in microtubes pretreated with K2EDTA as an anticoagulant and kept on ice until centrifugation. The tissue samples were rinsed using cold distilled water to remove blood, blotted dry, weighed and stored on dry ice until LC/MS/MS analysis. Plasma was transferred into polypropylene tubes or 96-well plates, quick frozen on dry ice, and stored at −70±10 °C until LC/MS/MS analysis.

[4] = system: mt-Keima mice; assay: Echocardiographic analysis; format: in vivo, mouse; settings: 25 mg/kg/day i.p. for 5 days, vs vehicle
Description: The mt-Keima mouse. ST-539 was dissolved into 1% DMSO in Sesame oil and injected intraperitoneally (i.p.) at doses of 25 mg/kg/day with five total doses. Both male and female mice were used in this study. The control group received vehicle only. Echocardiographic measurements were taken using a Vevo3100 Visual Sonics (Visual Sonics) system. The mice were lightly anesthetized with isoflurane and the ejection fraction, fractional shortening, and ventricular chamber dimensions were determined using 2-D-guided M mode images. Ejection fraction, fractional shortening, ventricular chamber dimensions, and left ventricular mass were calculated automatically using the VevoLAB program. All experiments involving animals were approved by the Institutional Animal Care and Use Committee at The Ohio State University.

[5] = ST-539 10 μg/ml, with A/O, presence of USP30
[6] = 24 Hours Post-dose, 25 mg/kg i.p., mean

SMILES: CC(C)(C)NS(=O)(=O)c1cccc2c(NC(=O)C(Cc3ccccc3)NC(=O)c3ccccc3)cccc12 (centres unmarked) [ST-539]
- TOM20 ubiquitination and decline in TOM20 level on addition of ST-539 ([1]; A/O plus ST-539 1 or 3 μg/ml, cells expressing both ectopic Parkin and endogenous PINK1): further potentiated
- correlation of TOM20 ubiquitination with ST-539 dosage ([1]; A/O treatment): A close correlation exists
- reduction in TOM20 level relative to vehicle treated cells ([1]; Parkin positive cells, A/O 18 h, ST-539 3 μg/ml, not in WT HeLa or PINK1 KO cells): more significant reduction
- TOM20 ubiquitination [1, 5]: caused a ubiquitinated TOM20
- loss of TOM20 protein level [1, 5]: ~ 90%
- TOM20 ubiquitination independent of functional PINK1/Parkin pathway ([1]; long term treatment (18 h), ST-539 3 μg/ml): did not promote TOM20 ubiquitination
- basal and maximal respiration ([2]; 24 h ST-539, high dose): slight increase
- basal respiration and spare respiratory capacity ([2]; ST-539, both cell lines): Slightly increased
- Brain concentration [3, 6]: 17.4 ng/g
- Heart concentration [3, 6]: 37.0 ng/g
- ST-539 detected in mouse brain homogenate ([3]; 24 h post-dose): modest concentrations
- cardiac output [4]: similar; also recorded: does not appear to impact cardiac output
- ejection fraction (EF) [4]: similar; also recorded: minimal differences
- left ventricular posterior wall thickness (LVPWs) [4]: similar; also recorded: does not appear to impact

— patent publication US20260373103A1, “COMPOSITIONS AND METHODS FOR PREVENTING CARDIOMYOPATHY” (OHIO STATE INNOVATION FOUNDATION, priority 2022, published 2026)
